Results on 58 compounds are retold here after BindingDB's records for doi:10.1007/s10822-022-00478-x (Roche Innovation Center Basel, F. Hoffmann-La Roche Ltd., 2022).

This test has as its target cAMP and cAMP-inhibited cGMP 3',5'-cyclic phosphodiesterase 10A (Homo sapiens, UniProt Q9Y233). As to the kind of experiment: PDE10A assay. As for the experimental part:
Compounds were diluted in 20 mM HEPES/NaOH (pH 7.5), 10 mM MgCl2 and 0.05 mg/ml bovine serum albumin. A fixed amount of 2 ng/well human PDE10A enzyme was added and incubated at room temperature for 15 min under agitation. The reaction was started by the addition of the substrate cocktail [3H]cGMP (Perkin Elmer NET337001MC, S.A. 13.5 Ci/mmol) / cGMP at a final concentration of 50 nM and incubated for an additional 15 min. The reaction was stopped by the addition of 0.5 mg/well of Y-Si SPA beads. The plates were shaken for 1 h, followed by a brief centrifugation (170 g for 1 min). The radioactivity bound to the beads was estimated using a TopCount (Perkin-Elmer). For the determination of IC50 values, a four parameters logistics equation was used. pIC50 is defined as − log10(IC50).

Broadly, the IC50 is the concentration that gives 50% inhibition. Lower therefore signals greater potency in that assay. In turn, `COc1ccc(NC(=O)c2nc(C3CC3)cnc2Nc2cncnc2)nn1` [Roche-Dataset for PDE10A, Compound 1054] returned an IC50 of 1480 nM.

For `COCCCNC(=O)c1nc(C2CC2)cnc1Nc1cncnc1` [Roche-Dataset for PDE10A, Compound 1027], the IC50 was 944 nM. This IC50 lies about 1.6-fold lower than the previous one.

Compound `CC(=O)Nc1cccc(NC(=O)c2nc(C3CC3)cnc2Nc2cncnc2)c1` [Roche-Dataset for PDE10A, Compound 571] displayed an IC50 of 35 nM. Against the preceding compound, the IC50 is about 27-fold lower.

The compound `Cn1ncc(C(=O)N2CCC2)c1C(=O)Nc1cc[nH]n1` [Roche-Dataset for PDE10A, Compound 1155] showed an IC50 of 3130 nM.

Take `O=C(NC1CCCCCC1)c1nc(C2CC2)cnc1Nc1cncnc1` [Roche-Dataset for PDE10A, Compound 1154]: half-maximal inhibition (IC50) was put at 1040 nM.

In the case of `Cc1c(Cl)cc(Cl)c2nc(CCc3ccn(C)n3)nn12` [Roche-Dataset for PDE10A, Compound 980], 309 nM corresponded to half-maximal inhibition (IC50). Against the preceding compound, the IC50 is about 3.4-fold lower.

With `c1cc(COc2nc(N3CCOCC3)c3ccccc3n2)nc(N2CCCC2)c1` [4-(2-((6-(pyrrolidin-1-yl)pyridin-2-yl)methoxy)quinazolin-4-yl)morpholine], the concentration for half-maximal inhibition (IC50) amounted to 58 nM.

Compound `O=C1c2ccccc2C(=O)N1CCc1nc(-c2cccnc2)no1` [Roche-Dataset for PDE10A, Compound 579] displayed an IC50 of 16400 nM.

The compound `Cc1cc(C)c2c(NC(=O)c3c(C(=O)N4CCC4)cnn3C)nn(C)c2n1` [Roche-Dataset for PDE10A, Compound 1160] displayed a concentration for half-maximal inhibition (IC50) of 4290 nM.

Compound `Cc1ncc(C)n2nc(CCc3nc(N(C)CC4CC4)nn3C)nc12` [Roche-Dataset for PDE10A, Compound 841] had an IC50 of 117 nM. This IC50 is about 37-fold lower than that of the compound before.

As for `COCc1ccc(NC(=O)c2nc(C3CC3)cnc2Nc2cncnc2)c(C(=O)NCC(C)(C)O)n1` [US8703768, 210], the IC50 was determined as 0.48 nM.

Take `COc1nc(OCc2nc(-c3ccccc3)cn2C)nc2ccccc12` [Roche-Dataset for PDE10A, Compound 411]: 61 nM corresponded to half-maximal inhibition (IC50).

`O=C1CCc2ccc(NC(=O)c3nc(C4CC4)cnc3Nc3cncnc3)cc21` [Roche-Dataset for PDE10A, Compound 881]: the IC50 stood at 27 nM. This IC50 is about 2.3-fold lower than that of the compound before.

As for `CNC(=O)c1c(-c2nc(CCc3nc4c(C)ncc(C)n4n3)n(C)n2)cnn1C` [Roche-Dataset for PDE10A, Compound 290], the concentration for half-maximal inhibition (IC50) amounted to 337 nM. This IC50 is about 12-fold higher than that of the compound before.

For the compound `Cc1ncc(C2CC2)c2nc(CCc3nc(N4CCCC4)nn3C)nn12` [Roche-Dataset for PDE10A, Compound 605], the IC50 came out at 3.28 nM.

Regarding `Cn1ncc(Br)c1C(=O)Nc1ccn2nc(-c3ccccc3)nc2c1` [Roche-Dataset for PDE10A, Compound 371], the midpoint of inhibition, the IC50, lay at 35 nM.

In turn, `O=C(Nc1ccnn1-c1ccccc1)c1nc(C2CC2)ccc1Nc1cncnc1` [Roche-Dataset for PDE10A, Compound 507] came in with an IC50 of 0.87 nM.

For `CC(C)(O)CNC(=O)c1cc(C#N)ccc1NC(=O)c1nc(C2CC2)cnc1Nc1cncnc1` [US8703768, 262], the IC50 worked out at 0.71 nM. This IC50 and that of the compound before are within 1.5-fold of each other.

`Cn1cc(-c2ccncc2)c(C(=O)Nc2cc(-c3ccccn3)nn2C)n1` [Roche-Dataset for PDE10A, Compound 1102] registered an IC50 of 124 nM.

`Cc1ncc(C)n2nc(CCc3nc(-c4cn[nH]c4)nn3C)nc12` [Roche-Dataset for PDE10A, Compound 961] showed an IC50 of 87 nM. This IC50 and that of the compound before are within 1.5-fold of each other.

In the case of `O=C(NCCC1CCCCC1)c1nc(C2CC2)cnc1Nc1cncnc1` [Roche-Dataset for PDE10A, Compound 901], the midpoint of inhibition, the IC50, lay at 1410 nM.

Regarding `O=C(Nc1cccc(N2CCCC2=O)c1)c1nc(C2CC2)cnc1Nc1cncnc1` [Roche-Dataset for PDE10A, Compound 878], the half-inhibitory concentration (IC50) is 15 nM.

Compound `O=C(Nc1ccn2nc(-c3ccccc3)nc2c1)c1c(C(=O)N2CCC2)cnn1CCF` [Roche-Dataset for PDE10A, Compound 131] returned a concentration for half-maximal inhibition (IC50) of 1340 nM.

`O=C(c1ccccc1)N1CCN(C(=O)c2nc(C3CC3)cnc2Nc2cncnc2)CC1` [Roche-Dataset for PDE10A, Compound 1104]: the concentration for half-maximal inhibition (IC50) stood at 10000 nM.

`CC(=O)c1cccc(NC(=O)c2nc(C3CC3)cnc2Nc2cncnc2)c1` [Roche-Dataset for PDE10A, Compound 957] had a concentration for half-maximal inhibition (IC50) of 19 nM.

Regarding `Cc1cn2nc(C#Cc3nc(N4CCCC4)nn3C)ccc2n1` [US9617271, 67], the midpoint of inhibition, the IC50, lay at 9.21 nM.

The compound `O=C(c1nc(C2CC2)cnc1Nc1cncnc1)N1CCN(C2CCCCC2)CC1` [Roche-Dataset for PDE10A, Compound 1040] came in with an IC50 of 10000 nM.

For `Cn1nccc1NC(=O)c1nc(C2CC2)ccc1Nc1cncnc1` [Roche-Dataset for PDE10A, Compound 1033], the IC50 worked out at 104 nM.

In turn, `COc1ccc(Cn2ccc(NC(=O)c3c(C(=O)N4CCC4)cnn3C)n2)cc1` [Roche-Dataset for PDE10A, Compound 977] came in with an IC50 of 79 nM. This IC50 and that of the compound before are within 1.5-fold of each other.

For the compound `CN(c1nc2cc(NC(=O)c3c(C(=O)N4CCC4)cnn3C)ccn2n1)C1CC1` [Roche-Dataset for PDE10A, Compound 450], the IC50 amounted to 0.87 nM.

Consider `O=C(NCCN1CCc2ccccc2C1=O)c1nc(C2CC2)cnc1Nc1cncnc1` [Roche-Dataset for PDE10A, Compound 451], for which the half-inhibitory concentration (IC50) amounted to 574 nM.

In turn, `O=C(Nc1cc(-c2ccccn2)nn1Cc1ccccc1)c1nc(C2CC2)ccc1Nc1cncnc1` [US8470820, 29] showed a half-inhibitory concentration (IC50) of 1.71 nM.

Regarding `Cn1ncc(C(=O)N2CCC2)c1C(=O)Nc1ccn(CCF)n1` [Roche-Dataset for PDE10A, Compound 1082], it took 551 nM to reach half-maximal inhibition (IC50). Compared with the last compound, the IC50 is about 320-fold higher.

Regarding `O=C(Nc1ccn2nc(-c3ccccc3)nc2c1)c1ccc(Cl)nn1` [Roche-Dataset for PDE10A, Compound 897], 10000 nM corresponded to half-maximal inhibition (IC50). Compared with the last compound, the IC50 is about 18-fold higher.

Regarding `Cn1cc(-c2ccccc2)nc1CCNC(=O)c1cccn2c(C3CC3)nnc12` [Roche-Dataset for PDE10A, Compound 92], half-maximal inhibition (IC50) required 43 nM.

`Cn1nc(C2CCCC2)cc1NC(=O)c1nc(C2CC2)ccc1Nc1cncnc1` [Roche-Dataset for PDE10A, Compound 677] registered an IC50 of 439 nM.

Compound `O=C(Nc1ccc2cc(-c3ccccc3)nn2c1)c1ccno1` [Roche-Dataset for PDE10A, Compound 679] registered an IC50 of 2360 nM. Compared with the last compound, the IC50 is about 5.4-fold higher.

In turn, `COc1cccc(-c2nc3cc(NC(=O)c4c(C(=O)N5CCC5)cnn4C)ccn3n2)n1` [Roche-Dataset for PDE10A, Compound 160] registered a concentration for half-maximal inhibition (IC50) of 1.09 nM.

On to `Cc1oc(-c2ccccc2)nc1CCNC(=O)c1nc(C2CC2)cnc1Nc1cncnc1` [Roche-Dataset for PDE10A, Compound 202], for which it took 3.08 nM to reach half-maximal inhibition (IC50).

Take `COc1ccccc1-c1nc2cc(NC(=O)c3c(C(=O)O)cnn3C)ccn2n1` [Roche-Dataset for PDE10A, Compound 356]: the IC50 was found to be 9.74 nM. Compared with the last compound, the IC50 is about 3.2-fold higher.

`CS(=O)(=O)Nc1cccc(NC(=O)c2nc(C3CC3)cnc2Nc2cncnc2)c1` [Roche-Dataset for PDE10A, Compound 900] yielded an IC50 of 15 nM. Against the preceding compound, the IC50 is about 1.5-fold higher.

`Cn1cc(-c2cccc(CCc3nc(-c4ccccc4)cn3C)n2)cn1` [Roche-Dataset for PDE10A, Compound 296]: it took 6500 nM to reach half-maximal inhibition (IC50). Against the preceding compound, the IC50 is about 430-fold higher.

Compound `O=C(Nc1sccc1C(=O)N1CCOCC1)c1nc(C2CC2)ccc1Nc1cncnc1` [US8703768, 90] gave an IC50 of 0.44 nM. Against the preceding compound, the IC50 is about 15000-fold lower.

`CC1(CNC(=O)c2nc(C3CC3)cnc2Nc2cncnc2)COC1` [Roche-Dataset for PDE10A, Compound 1092] had an IC50 of 2980 nM.

For the compound `Cn1ncc(C(=O)O)c1C(=O)Nc1ccn2nc(-c3ccnc(F)c3)nc2c1` [Roche-Dataset for PDE10A, Compound 394], the half-inhibitory concentration (IC50) is 570 nM.

In turn, `Cc1nc2ccccc2nc1OCc1csc(N2CCCC2)n1` [Roche-Dataset for PDE10A, Compound 1025] had an IC50 of 65 nM.

For `CN(C)C(=O)Cn1ccc(NC(=O)c2nc(C3CC3)cnc2Nc2cncnc2)n1` [Roche-Dataset for PDE10A, Compound 882], inhibition was half-maximal at 32 nM (IC50).

Compound `CS(=O)(=O)CCNC(=O)c1nc(C2CC2)cnc1Nc1cncnc1` [Roche-Dataset for PDE10A, Compound 1061] gave an IC50 of 1630 nM.

The compound `Cc1[nH]c(-c2cccnc2)nc1CCN1C(=O)c2ccccc2C1=O` [Roche-Dataset for PDE10A, Compound 260] gave an IC50 of 1540 nM.

With `O=C(Nc1cnccc1Cl)c1nc(C2CC2)ccc1Nc1cncnc1` [Roche-Dataset for PDE10A, Compound 995], half-maximal inhibition (IC50) required 21 nM.

The compound `Cc1c(Cl)cc(Cl)c2nc(CCc3nc(N4CCCC4)nn3C)nn12` [Roche-Dataset for PDE10A, Compound 357] returned an IC50 of 0.55 nM.

For the compound `Cc1ncn(C)c1C(=O)Nc1cc(-c2ccccn2)nn1C` [Roche-Dataset for PDE10A, Compound 772], the IC50 came out at 10000 nM.

As for `CN(C)c1nc(OCc2cccc(N3CCCC3)n2)nc2ccc(Cl)cc12` [6-chloro-n,n-dimethyl-2-((6-(pyrrolidin-1-yl)pyridin-2-yl)methoxy)quinazolin-4-amine], the IC50 is 7.71 nM.

Compound `Cc1cc(NC(=O)c2ccc3cc(-c4ccccc4)nn3c2)cc(C)n1` [Roche-Dataset for PDE10A, Compound 286] showed an IC50 of 75 nM. This IC50 lies about 9.7-fold higher than the previous one.

`Cc1nc2ccccc2nc1OCc1cccc(N2CCCC2)n1` [2-methyl-3-((6-(pyrrolidin-1-yl)pyridin-2-yl)methoxy)quinoxaline] registered an IC50 of 38 nM.

`CCn1ccc(NC(=O)c2nc(C3CC3)ccc2Nc2cncnc2)n1` [Roche-Dataset for PDE10A, Compound 819] showed a concentration for half-maximal inhibition (IC50) of 72 nM. This IC50 lies about 1.9-fold higher than the previous one.

The compound `CN(C)C(=O)c1cc(NC(=O)c2nc(C3CC3)ccc2Nc2cncnc2)n(C)n1` [Roche-Dataset for PDE10A, Compound 404] yielded an IC50 of 444 nM.

Regarding `COc1cnc(C)n2c(CCc3nc(N4CCCC4)nn3C)nnc12` [Roche-Dataset for PDE10A, Compound 633], it took 4190 nM to reach half-maximal inhibition (IC50).
